Holding throughout (type): cell-based
For experiment [1], the target named is KDR (phospho-KDR, VEGF165-stimulated HUVEC cells) (Homo sapiens (Human), UniProt P35968). Kind of experiment: KDR autophosphorylation ELISA in HUVEC cells (Example G). The following applies: cellular activity; KDR autophosphorylation ELISA in HUVEC cells. Summed up: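 HUVECs were serum-starved 24 h, given compound as an 8-point dilution series (0.3% DMSO final) for 1 h, then stimulated with 100 ng/mL VEGF165 for 5 min. Lysate phospho-KDR was quantified by sandwich ELISA against a phospho-KDR standard, and IC50s came from a 4-parameter logistic fit.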
(In general: An ELISA detects its analyte on a solid surface through an enzyme-linked reagent.)

The target in experiment [2] is Met (phospho-Met, HGF-stimulated PC-3 prostate cancer cells) (Homo sapiens (Human), UniProt P08581). Kind of experiment: Met autophosphorylation ELISA in PC-3 cells (Example F). The following applies: cellular activity; Met autophosphorylation ELISA in PC-3 cells; read-out: c-Met IC50. Summed up: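 Serum-starved (3 h) PC-3 cells were treated 1 h with compounds (8-point curve, 0.3% DMSO), then stimulated with 100 ng/mL human HGF for 10 min. Lysate phospho-Met (panTyr) was measured by sandwich ELISA, normalised to DMSO and reference-inhibitor controls. IC50 came from 4-parameter logistic fit.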

Experiment [3] has as its target AXL (phospho-AXL, Gas6-stimulated A-172 glioblastoma cells) (Homo sapiens (Human), UniProt P30530). The experiment in a line: AXL autophosphorylation ELISA in A-172 cells (Example E). The following applies: cellular activity; AXL autophosphorylation ELISA in A-172 cells; read-out: Axl IC50. Summed up: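 Phospho-AXL in lysates was quantified by ELISA, normalised to DMSO (100%) and reference inhibitor (0%) controls. IC50 by 4-parameter logistic fit.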

The target of experiment [4] is Mer (phospho-Mer, MERTK-transfected 293A cells) (Homo sapiens (Human), UniProt Q12866). Kind of experiment: Mer autophosphorylation ELISA in transient transfected 293A cells (Example H). To be noted: cellular activity; Mer autophosphorylation ELISA in transient transfected 293A cells. Summed up: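 Inhibition of cellular Mer autophosphorylation is determined in 293A cells transiently expressing human MERTK after 1 h compound exposure (8 concentrations, serum-free, 0.3% DMSO). Phospho-Mer in clarified lysates is measured by ELISA, with DMSO and reference-inhibitor wells defining the 100% and 0% activity limits.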

Bounds are passed on as bounds.

Sequence of KDR (phospho-KDR, VEGF165-stimulated HUVEC cells) (P35968 20-1356): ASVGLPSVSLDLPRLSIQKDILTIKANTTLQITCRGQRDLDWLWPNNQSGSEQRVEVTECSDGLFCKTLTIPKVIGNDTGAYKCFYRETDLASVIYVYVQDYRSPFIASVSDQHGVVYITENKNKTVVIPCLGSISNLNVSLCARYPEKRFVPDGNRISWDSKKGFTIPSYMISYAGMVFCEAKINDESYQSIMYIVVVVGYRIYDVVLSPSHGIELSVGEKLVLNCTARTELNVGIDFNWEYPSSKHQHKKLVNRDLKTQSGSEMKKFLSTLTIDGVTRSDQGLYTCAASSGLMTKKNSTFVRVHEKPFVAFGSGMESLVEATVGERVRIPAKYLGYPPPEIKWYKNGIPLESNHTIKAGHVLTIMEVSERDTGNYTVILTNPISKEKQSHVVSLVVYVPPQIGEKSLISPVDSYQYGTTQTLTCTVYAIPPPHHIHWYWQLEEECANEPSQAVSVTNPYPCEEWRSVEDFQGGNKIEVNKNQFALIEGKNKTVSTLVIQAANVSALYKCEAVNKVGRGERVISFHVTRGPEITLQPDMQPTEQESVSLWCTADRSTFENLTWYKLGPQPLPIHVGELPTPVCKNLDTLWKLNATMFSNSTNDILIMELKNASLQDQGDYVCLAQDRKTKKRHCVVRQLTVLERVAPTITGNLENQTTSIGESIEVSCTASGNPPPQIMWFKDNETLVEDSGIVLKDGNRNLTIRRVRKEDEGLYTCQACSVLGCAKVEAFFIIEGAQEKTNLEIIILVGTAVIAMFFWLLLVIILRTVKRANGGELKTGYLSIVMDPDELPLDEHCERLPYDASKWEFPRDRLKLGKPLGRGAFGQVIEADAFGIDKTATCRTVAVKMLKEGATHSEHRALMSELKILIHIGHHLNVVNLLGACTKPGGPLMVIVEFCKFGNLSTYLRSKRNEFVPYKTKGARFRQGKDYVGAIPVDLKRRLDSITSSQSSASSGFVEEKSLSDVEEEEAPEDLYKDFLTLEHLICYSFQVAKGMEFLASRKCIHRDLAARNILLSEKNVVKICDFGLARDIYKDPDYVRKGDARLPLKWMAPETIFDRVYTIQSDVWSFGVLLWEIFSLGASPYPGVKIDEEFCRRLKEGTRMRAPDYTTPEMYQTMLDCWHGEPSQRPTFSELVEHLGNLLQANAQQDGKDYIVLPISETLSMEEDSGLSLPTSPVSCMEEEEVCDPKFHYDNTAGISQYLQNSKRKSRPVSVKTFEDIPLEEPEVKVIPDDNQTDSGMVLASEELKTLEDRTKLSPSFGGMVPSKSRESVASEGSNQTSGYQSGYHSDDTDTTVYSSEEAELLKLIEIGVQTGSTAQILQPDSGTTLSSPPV
Sequence of AXL (phospho-AXL, Gas6-stimulated A-172 glioblastoma cells) (P30530 26-894): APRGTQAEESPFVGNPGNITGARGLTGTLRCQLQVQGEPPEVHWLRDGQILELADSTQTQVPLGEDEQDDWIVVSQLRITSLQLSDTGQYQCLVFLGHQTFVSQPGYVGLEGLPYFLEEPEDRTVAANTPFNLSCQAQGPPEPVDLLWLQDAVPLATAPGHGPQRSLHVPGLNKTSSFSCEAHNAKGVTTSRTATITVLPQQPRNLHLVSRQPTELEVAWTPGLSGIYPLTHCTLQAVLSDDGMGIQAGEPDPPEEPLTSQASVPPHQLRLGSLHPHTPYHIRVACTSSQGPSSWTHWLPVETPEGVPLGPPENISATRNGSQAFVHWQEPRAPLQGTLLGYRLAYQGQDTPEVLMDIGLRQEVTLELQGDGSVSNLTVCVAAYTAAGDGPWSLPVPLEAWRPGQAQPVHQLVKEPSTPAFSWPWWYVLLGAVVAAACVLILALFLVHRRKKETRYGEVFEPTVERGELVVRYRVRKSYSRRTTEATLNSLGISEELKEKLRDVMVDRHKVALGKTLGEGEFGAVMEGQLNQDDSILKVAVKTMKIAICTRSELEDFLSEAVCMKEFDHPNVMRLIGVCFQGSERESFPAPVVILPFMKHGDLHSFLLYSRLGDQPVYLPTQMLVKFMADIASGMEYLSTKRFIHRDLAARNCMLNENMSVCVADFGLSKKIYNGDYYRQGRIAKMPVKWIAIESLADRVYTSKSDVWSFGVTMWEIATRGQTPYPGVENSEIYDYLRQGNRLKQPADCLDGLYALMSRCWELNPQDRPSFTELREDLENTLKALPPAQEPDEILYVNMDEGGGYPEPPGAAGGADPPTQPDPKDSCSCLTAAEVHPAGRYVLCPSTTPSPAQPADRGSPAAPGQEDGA
Sequence of Mer (phospho-Mer, MERTK-transfected 293A cells) (Q12866 21-999): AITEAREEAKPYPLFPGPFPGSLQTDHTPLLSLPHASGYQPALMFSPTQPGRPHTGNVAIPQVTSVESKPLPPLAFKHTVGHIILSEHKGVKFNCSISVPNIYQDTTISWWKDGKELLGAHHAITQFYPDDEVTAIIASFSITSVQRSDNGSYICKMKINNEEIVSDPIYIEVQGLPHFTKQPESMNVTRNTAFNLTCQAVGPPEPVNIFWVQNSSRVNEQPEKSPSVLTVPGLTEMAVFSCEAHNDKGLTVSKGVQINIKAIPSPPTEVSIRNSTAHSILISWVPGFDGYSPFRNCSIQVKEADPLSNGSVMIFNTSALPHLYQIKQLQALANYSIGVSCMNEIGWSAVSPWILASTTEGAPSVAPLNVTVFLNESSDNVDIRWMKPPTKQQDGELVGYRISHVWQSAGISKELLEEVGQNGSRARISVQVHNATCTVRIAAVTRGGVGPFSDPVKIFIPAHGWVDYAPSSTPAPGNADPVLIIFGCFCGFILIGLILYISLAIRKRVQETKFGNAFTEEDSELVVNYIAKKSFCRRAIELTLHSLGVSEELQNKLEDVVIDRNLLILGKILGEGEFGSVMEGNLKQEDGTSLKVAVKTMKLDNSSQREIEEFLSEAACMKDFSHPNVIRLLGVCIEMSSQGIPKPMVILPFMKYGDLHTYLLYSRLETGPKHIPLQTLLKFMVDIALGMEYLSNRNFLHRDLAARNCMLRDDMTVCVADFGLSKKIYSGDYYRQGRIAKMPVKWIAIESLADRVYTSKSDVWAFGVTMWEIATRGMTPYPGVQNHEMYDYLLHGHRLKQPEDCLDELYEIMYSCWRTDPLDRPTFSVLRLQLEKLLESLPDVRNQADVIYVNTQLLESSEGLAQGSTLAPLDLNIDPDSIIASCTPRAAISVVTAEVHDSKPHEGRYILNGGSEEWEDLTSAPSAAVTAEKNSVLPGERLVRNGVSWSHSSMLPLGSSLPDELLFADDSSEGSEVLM
Sequence of Met (phospho-Met, HGF-stimulated PC-3 prostate cancer cells) (P08581 25-1390): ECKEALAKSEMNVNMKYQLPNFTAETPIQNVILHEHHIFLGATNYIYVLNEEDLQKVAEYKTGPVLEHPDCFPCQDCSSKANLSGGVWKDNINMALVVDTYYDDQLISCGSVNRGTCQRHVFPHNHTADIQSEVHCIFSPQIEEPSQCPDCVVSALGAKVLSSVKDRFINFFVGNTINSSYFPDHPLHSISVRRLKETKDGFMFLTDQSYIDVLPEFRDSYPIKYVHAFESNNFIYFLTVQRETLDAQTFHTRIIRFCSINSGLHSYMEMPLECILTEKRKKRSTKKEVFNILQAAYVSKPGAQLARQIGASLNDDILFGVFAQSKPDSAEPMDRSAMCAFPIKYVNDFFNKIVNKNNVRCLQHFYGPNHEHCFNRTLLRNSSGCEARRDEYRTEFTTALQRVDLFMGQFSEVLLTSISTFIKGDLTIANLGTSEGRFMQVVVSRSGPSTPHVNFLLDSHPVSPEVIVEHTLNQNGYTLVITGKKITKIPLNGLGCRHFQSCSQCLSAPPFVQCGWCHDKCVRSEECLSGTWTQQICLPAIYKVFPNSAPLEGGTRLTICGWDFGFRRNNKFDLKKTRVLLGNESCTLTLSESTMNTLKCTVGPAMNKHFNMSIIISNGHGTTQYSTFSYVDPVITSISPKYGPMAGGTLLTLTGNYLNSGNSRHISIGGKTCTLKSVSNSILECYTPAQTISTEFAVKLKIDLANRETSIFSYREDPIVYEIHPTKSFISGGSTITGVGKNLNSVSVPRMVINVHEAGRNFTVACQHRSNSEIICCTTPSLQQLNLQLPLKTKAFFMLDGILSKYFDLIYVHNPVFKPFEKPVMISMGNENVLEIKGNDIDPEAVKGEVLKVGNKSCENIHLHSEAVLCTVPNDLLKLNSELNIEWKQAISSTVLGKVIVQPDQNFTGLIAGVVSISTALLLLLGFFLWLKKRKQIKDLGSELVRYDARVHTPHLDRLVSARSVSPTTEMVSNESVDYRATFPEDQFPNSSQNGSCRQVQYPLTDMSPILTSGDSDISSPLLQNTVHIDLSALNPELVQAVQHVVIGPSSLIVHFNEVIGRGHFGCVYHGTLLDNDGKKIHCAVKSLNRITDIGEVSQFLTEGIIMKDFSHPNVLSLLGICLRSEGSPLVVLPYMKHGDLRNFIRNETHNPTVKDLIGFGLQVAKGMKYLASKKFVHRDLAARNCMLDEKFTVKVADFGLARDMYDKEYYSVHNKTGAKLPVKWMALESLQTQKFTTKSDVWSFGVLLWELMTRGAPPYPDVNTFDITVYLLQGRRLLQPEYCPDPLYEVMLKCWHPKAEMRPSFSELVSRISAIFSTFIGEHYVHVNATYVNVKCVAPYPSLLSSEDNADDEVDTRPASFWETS

On to `C=Cc1c(C)c(C(=O)Nc2ccc(Oc3ccnc4cc(OCCOC)c(OC)nc34)cc2)c(=O)n(-c2ccc(F)cc2)c1C` [Compound 741, 5-ethenyl-1-(4-fluorophenyl)-N-[4-[[6-methoxy-7-(2-methoxyethoxy)-1,5-naphthyridin-4-yl]oxy]phenyl]-4,6-dimethyl-2-oxopyridine-3-carboxamide], for which the IC50 (as a rule, the point on the concentration scale where inhibition reaches its midpoint) in experiment [1] was 0.1 to 0.3 µM; in experiment [2], under 0.1 µM; in experiment [3], under 0.1 µM; in experiment [4], under 0.1 µM.

For the compound `COCCOc1cc2nccc(Oc3ccc(NC(=O)c4ccc(C)n(-c5ccc(F)cc5)c4=O)cc3F)c2nc1OC` [Compound 484, N-[3-fluoro-4-[[6-methoxy-7-(2-methoxyethoxy)-1,5-naphthyridin-4-yl]oxy]phenyl]-1-(4-fluorophenyl)-6-methyl-2-oxopyridine-3-carboxamide], the IC50 in experiment [1], in experiment [2], in experiment [3] and in experiment [4] was under 0.1 µM in each case.

Take `COc1cc2nccc(Oc3ccc(NC(=O)c4c(C)c(C)cn(-c5ccc(F)cc5)c4=O)cc3)c2nc1OC` [Compound 680, N-[4-[(6,7-dimethoxy-1,5-naphthyridin-4-yl)oxy]phenyl]-1-(4-fluorophenyl)-4,5-dimethyl-2-oxopyridine-3-carboxamide]: the IC50 in experiment [1], in experiment [2], in experiment [3] and in experiment [4] was under 0.1 µM each time.

Turning to `COc1cc2c(Oc3ccc(NC(=O)c4ncc(C)n(-c5ccc(F)cc5)c4=O)cc3F)ccnc2cn1` [Compound 500, N-[3-fluoro-4-[(6-methoxy-1,7-naphthyridin-4-yl)oxy]phenyl]-4-(4-fluorophenyl)-5-methyl-3-oxopyrazine-2-carboxamide], the IC50 is 0.1 to 0.3 µM in experiment [1], under 0.1 µM in experiment [2], under 0.1 µM in experiment [3] and under 0.1 µM in experiment [4].

Regarding `COc1cnc2c(Oc3ccc(NC(=O)c4c(C)c(C(C)=O)c(C)n(-c5ccc(F)cc5)c4=O)cc3F)ccnc2c1` [Compound 323, 5-Acetyl-N-[3-fluoro-4-[(7-methoxy-1,5-naphthyridin-4-yl)oxy]phenyl]-1-(4-fluorophenyl)-4,6-dimethyl-2-oxopyridine-3-carboxamide], the IC50 in experiment [1] is 0.1 to 0.3 µM; in experiment [2], under 0.1 µM; in experiment [3], under 0.1 µM; in experiment [4], under 0.1 µM.

For `COc1cc2nccc(Oc3cc(C)c(NC(=O)c4cn(C)c(C)c(-c5ccc(F)cc5)c4=O)cc3F)c2nc1OC` [Compound 744, N-[4-[(6,7-dimethoxy-1,5-naphthyridin-4-yl)oxy]-5-fluoro-2-methylphenyl]-5-(4-fluorophenyl)-1,6-dimethyl-4-oxopyridine-3-carboxamide], the IC50 in experiment [1] was over 0.3 µM; in experiment [2], under 0.1 µM; in experiment [3], under 0.1 µM; in experiment [4], under 0.1 µM.

`CNC(=O)Cc1nc2c(Oc3ccc(NC(=O)c4cnc(C)c(-c5ccc(F)cc5)c4O)cc3F)ccnc2cc1OC` [Compound 570, N-[3-Fluoro-4-[[7-methoxy-6-[2-(methylamino)-2-oxoethyl]-1,5-naphthyridin-4-yl]oxy]phenyl]-5-(4-fluorophenyl)-4-hydroxy-6-methylpyridine-3-carboxamide]: the IC50 in experiment [1], in experiment [2], in experiment [3] and in experiment [4] was under 0.1 µM each time.

Take `COCCOc1cc2nccc(Oc3ccc(NC(=O)c4cn(C)c(C)c(-c5ccc(F)cc5)c4=O)cc3F)c2nc1OC` [Compound 486, N-[3-fluoro-4-[[6-methoxy-7-(2-methoxyethoxy)-1,5-naphthyridin-4-yl]oxy]phenyl]-5-(4-fluorophenyl)-1,6-dimethyl-4-oxopyridine-3-carboxamide]: the IC50 in experiment [1], in experiment [2], in experiment [3] and in experiment [4] was under 0.1 µM throughout.

As for `CCOc1nc2c(Oc3ccc(NC(=O)c4c(COC)nc(C)c(-c5ccc(F)cc5)c4O)cc3)ccnc2cc1OC` [Compound 672, N-[4-[(6-ethoxy-7-methoxy-1,5-naphthyridin-4-yl)oxy]phenyl]-5-(4-fluorophenyl)-4-hydroxy-2-(methoxymethyl)-6-methylpyridine-3-carboxamide], the IC50 in experiment [1], in experiment [2], in experiment [3] and in experiment [4] was under 0.1 µM each time.

For the compound `COc1cc2nccc(Oc3ccc(NC(=O)c4c(C)c(C(C)=O)cn(-c5ccc(F)cc5)c4=O)cc3F)c2nc1OC` [Compound 654, 5-acetyl-N-[4-[(6,7-dimethoxy-1,5-naphthyridin-4-yl)oxy]-3-fluorophenyl]-1-(4-fluorophenyl)-4-methyl-2-oxopyridine-3-carboxamide], the half-inhibitory concentration (IC50) in experiment [1], in experiment [2], in experiment [3] and in experiment [4] was under 0.1 µM each time.

On to `COc1cnc2c(Oc3ccc(NC(=O)c4c(C)c(C)c(C)n(-c5ccc(F)cc5)c4=O)cc3)ccnc2c1` [Compound 317, 1-(4-Fluorophenyl)-N-[4-[(7-methoxy-1,5-naphthyridin-4-yl)oxy]phenyl]-4,5,6-trimethyl-2-oxopyridine-3-carboxamide], for which the IC50 in experiment [1], in experiment [2], in experiment [3] and in experiment [4] was under 0.1 µM in each case.

For `COCc1nc(C)c(-c2ccc(F)cc2C)c(O)c1C(=O)Nc1ccc(Oc2ccnc3cc(C)c(OC)nc23)c(F)c1` [Compound 470, N-[3-fluoro-4-[(6-methoxy-7-methyl-1,5-naphthyridin-4-yl)oxy]phenyl]-5-(4-fluoro-2-methylphenyl)-4-hydroxy-2-(methoxymethyl)-6-methylpyridine-3-carboxamide], the IC50 in experiment [1], in experiment [2], in experiment [3] and in experiment [4] was under 0.1 µM each time.

As for `COc1cc2nccc(Oc3ccc(NC(=O)c4c(C)nc(C)c(-c5ccc(F)cc5C)c4O)cc3F)c2nc1Cl` [Compound 736, N-[4-[(6-chloro-7-methoxy-1,5-naphthyridin-4-yl)oxy]-3-fluorophenyl]-5-(4-fluoro-2-methylphenyl)-4-hydroxy-2,6-dimethylpyridine-3-carboxamide], the IC50 in experiment [1], in experiment [2], in experiment [3] and in experiment [4] was under 0.1 µM throughout.

Consider `COc1cc2nccc(Oc3ccc(NC(=O)c4cn5cc(C)oc5c(-c5ccc(F)cc5)c4=O)cc3F)c2nc1OC` [Compound 491, N-[4-[(6,7-dimethoxy-1,5-naphthyridin-4-yl)oxy]-3-fluorophenyl]-8-(4-fluorophenyl)-2-methyl-7-oxo-[1,3]oxazolo[3,2-a]pyridine-6-carboxamide], for which the IC50 is over 0.3 µM in experiment [1], under 0.1 µM in experiment [2], under 0.1 µM in experiment [3] and under 0.1 µM in experiment [4].

As for `CCOc1nc2c(Oc3ccc(NC(=O)c4c(C)nc(C)c(-c5ccc(F)cc5C)c4O)cc3F)ccnc2cc1OC` [Compound 678, N-[4-[(6-ethoxy-7-methoxy-1,5-naphthyridin-4-yl)oxy]-3-fluorophenyl]-5-(4-fluoro-2-methylphenyl)-4-hydroxy-2,6-dimethylpyridine-3-carboxamide], the IC50 in experiment [1], in experiment [2], in experiment [3] and in experiment [4] was under 0.1 µM each time.

The values above are taken from US12371428B2 (Exelixis, Inc., priority 2019, dated 2025).
